Measurements: PMC9721373 (Antiviral Research, 2022)
Counter-ions that a name gives are not always drawn.

Tested on: SARS2-S-mediated membrane fusion
Assay type: cell-based, SARS-CoV-2

CC(CN(C)C)CN1c2ccccc2Sc2ccccc21 (centres unmarked) [Alimemazine tartrate]
SARS2-S-mediated membrane fusion (average number of nuclei in each syncytium): reduced the formation of syncytia
membrane fusion by mutant SARS2-S (Δ69–70, N501Y, E484K, D614G): reduced the formation of syncytia
